Experiments:
[1] = target: T1, Beta-1 adrenergic receptor (Homo sapiens, UniProt P08588); assay: (§1) Compound was evaluated for its adenylyl cyclase activation at human beta-1 adrenergic receptor (AR)
Target sequence in this assay (P08588 whole entry, looked up): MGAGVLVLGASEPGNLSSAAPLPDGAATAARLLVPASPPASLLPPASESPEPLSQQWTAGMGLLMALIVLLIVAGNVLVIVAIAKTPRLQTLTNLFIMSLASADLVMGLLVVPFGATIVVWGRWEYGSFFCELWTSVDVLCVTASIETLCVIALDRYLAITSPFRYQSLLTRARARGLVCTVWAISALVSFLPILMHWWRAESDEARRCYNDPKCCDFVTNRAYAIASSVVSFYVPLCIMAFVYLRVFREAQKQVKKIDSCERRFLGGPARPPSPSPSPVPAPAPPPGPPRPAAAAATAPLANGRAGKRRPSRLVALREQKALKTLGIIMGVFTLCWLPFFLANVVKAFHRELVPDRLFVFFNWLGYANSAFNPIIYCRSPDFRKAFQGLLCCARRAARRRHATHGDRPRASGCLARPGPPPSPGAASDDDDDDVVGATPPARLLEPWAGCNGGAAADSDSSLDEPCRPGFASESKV

[2] = target: T2, Beta-2 adrenergic receptor (Homo sapiens, UniProt P07550); assay: Compound was evaluated for its inhibitory activity against CHO cells expressing the cloned human beta-2 adrenergic receptor (AR) in the presence of [125I]-iodocyanopindolol; type: functional, cell-based
Target sequence in this assay (P07550 whole entry): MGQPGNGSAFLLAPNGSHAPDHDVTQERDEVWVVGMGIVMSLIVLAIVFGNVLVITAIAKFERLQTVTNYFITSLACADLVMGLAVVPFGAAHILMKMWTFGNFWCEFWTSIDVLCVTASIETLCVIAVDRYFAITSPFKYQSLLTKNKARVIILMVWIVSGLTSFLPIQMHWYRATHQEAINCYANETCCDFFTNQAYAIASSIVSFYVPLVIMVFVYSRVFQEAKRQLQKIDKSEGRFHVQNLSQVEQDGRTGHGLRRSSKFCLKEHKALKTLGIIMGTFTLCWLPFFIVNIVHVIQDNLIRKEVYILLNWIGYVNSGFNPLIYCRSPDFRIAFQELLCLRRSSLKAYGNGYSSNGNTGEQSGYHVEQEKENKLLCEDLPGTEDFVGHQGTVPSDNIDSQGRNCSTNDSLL

[3] = target: T1, Beta-1 adrenergic receptor; assay: Compound was evaluated for its inhibitory activity against CHO cells expressing the cloned human Beta-1 adrenergic receptor in the presence of [125I]iodocyanopindolol; type: cell-based
Target sequence in this assay (P08588 whole entry): as the sequence (P08588 whole entry, looked up) above

[4] = target: T2, Beta-2 adrenergic receptor; assay: Compound was evaluated for its inhibitory activity against human beta-2 adrenergic receptor (AR); type: functional
Target sequence in this assay (P07550 whole entry): as the sequence (P07550 whole entry) above

[5] = target: T1, Beta-1 adrenergic receptor; assay: Compound was evaluated for its inhibitory activity against human beta-1 adrenergic receptor (AR); type: functional
Target sequence in this assay (P08588 whole entry): as the sequence (P08588 whole entry, looked up) above

[6] = target: T3, Beta-3 adrenergic receptor (Homo sapiens, UniProt P13945); assay: Inhibitory activity against human beta-3 adrenergic receptor (AR); type: functional
Target sequence in this assay (P13945 whole entry): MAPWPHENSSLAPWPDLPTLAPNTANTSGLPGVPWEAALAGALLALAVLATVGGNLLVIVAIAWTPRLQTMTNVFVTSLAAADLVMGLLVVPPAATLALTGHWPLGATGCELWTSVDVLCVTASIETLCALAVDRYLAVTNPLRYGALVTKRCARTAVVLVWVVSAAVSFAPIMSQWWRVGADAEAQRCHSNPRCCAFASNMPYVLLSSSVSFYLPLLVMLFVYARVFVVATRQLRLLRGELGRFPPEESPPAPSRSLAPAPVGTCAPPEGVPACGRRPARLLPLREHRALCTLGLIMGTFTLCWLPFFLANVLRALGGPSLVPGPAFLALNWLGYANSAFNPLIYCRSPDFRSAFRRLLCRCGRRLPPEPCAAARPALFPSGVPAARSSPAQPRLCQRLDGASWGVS

[7] = target: T3, Beta-3 adrenergic receptor; assay: Adenylyl cyclase activation at human beta-3 adrenergic receptor (AR); type: functional; parameters: concentration or dose not given beside the values
Target sequence in this assay (P13945 whole entry, looked up): as the sequence (P13945 whole entry) above

[8] = target: T1, Beta-1 adrenergic receptor; assay: Compound was evaluated for its inhibitory activity against CHO cells expressing the cloned human beta-1 adrenergic receptor (AR) in the presence of [125I]iodocyanopindolol; type: functional, cell-based
Target sequence in this assay (P08588 whole entry): as the sequence (P08588 whole entry, looked up) above

[9] = target: T1, Beta-1 adrenergic receptor; assay: as §1; type: functional; parameters: concentration or dose not given beside the values
Target sequence in this assay (P08588 whole entry, looked up): as above

[10] = target: T2, Beta-2 adrenergic receptor; assay: Inhibitory activity against CHO cells expressing human Beta-2 adrenergic receptor with [125I]-iodocyanopindolol; type: cell-based
Target sequence in this assay (P07550 whole entry): as the sequence (P07550 whole entry) above

[11] = target: T3, Beta-3 adrenergic receptor; assay: Compound was evaluated for its inhibitory activity against human beta-3 adrenergic receptor (AR) at a concentration of 100 nM; type: functional
Target sequence in this assay (P13945 whole entry): as the sequence (P13945 whole entry) above

[12] = target: T1, Beta-1 adrenergic receptor; assay: Compound was evaluated for its inhibitory activity against CHO cells expressing the cloned human beta-1 adrenergic receptor (AR) in the presence of [125I]-iodocyanopindolol; type: cell-based
Target sequence in this assay (P08588 whole entry): as the sequence (P08588 whole entry, looked up) above

[13] = target: T2, Beta-2 adrenergic receptor; assay: Compound was evaluated for its adenylyl cyclase activation at human beta-2 adrenergic receptor (AR); type: functional
Target sequence in this assay (P07550 whole entry, looked up): as the sequence (P07550 whole entry) above

Compound: CCCCCCNC(=O)Nc1ccc(S(=O)(=O)Nc2ccc(-c3ccc(OCC4NCCc5cc(O)c(O)cc54)cc3)cc2)cc1 (stereo not given)
- Activation [1]: 23%
- IC50 [2]: 0.16 µM
- IC50 [3]: 2000 nM
- EC50 [4]: 580 nM
- EC50 [5]: 2400 nM
- EC50 [6]: 16 nM
- Activation [7]: 72%

Compound: CCCCCCNC(=O)Nc1ccc(S(=O)(=O)Nc2ccc(-c3ccc(CC4NCCc5cc(O)c(O)cc54)cc3)cc2)cc1 (stereo not given)
- IC50 [8]: 3 µM
- IC50 [2]: 3.4 µM
- EC50 [4]: 340 nM
- Activation [9]: 44%
- EC50 [5]: 1800 nM
- EC50 [6]: 6 nM
- Activation [7]: 91%

Compound: CCCCCCNC(=O)Nc1ccc(S(=O)(=O)Nc2cccc(-c3ccc(OCC4NCCc5cc(O)c(O)cc54)cc3)c2)cc1 (stereo not given)
- IC50 [10]: 990 nM
- IC50 [3]: 6500 nM
- EC50 [11]: 10 nM

Compound: CCCCCCNC(=O)Nc1ccc(S(=O)(=O)Nc2cccc(-c3cccc(CC4NCCc5cc(O)c(O)cc54)c3)c2)cc1 (stereo not given)
- IC50 [8]: 0.53 µM
- IC50 [10]: 710 nM
- EC50 [4]: 2700 nM
- Activation [9]: 22%
- EC50 [5]: > 10000 nM
- EC50 [6]: 360 nM
- Activation [7]: 62%

Compound: CCCCCCNC(=O)Nc1ccc(S(=O)(=O)Nc2ccc(OCC3NCCc4cc(O)c(O)cc43)cc2)cc1 (stereo not given)
- IC50 [10]: 300 nM
- IC50 [3]: 1000 nM
- EC50 [11]: 4 nM

Compound: COc1cc(C[C@@H]2NCCc3cc(O)c(O)cc32)cc(OC)c1OC [TRETOQUINOL]
- EC50 [6]: 1.7 nM
- Activation [7]: 92%

Compound: COc1cc(-c2ccc(CC3NCCc4cc(O)c(O)cc43)cc2)cc(OC)c1OC (stereo not given)
- IC50 [10]: 760 nM
- EC50 [4]: 1500 nM
- Activation [9]: 45%
- EC50 [5]: 6100 nM
- EC50 [6]: 27 nM
- Activation [7]: 77%
- IC50 [12]: 1800 nM

Compound: CCCCCCNC(=O)Nc1ccc(S(=O)(=O)Nc2ccc3cc(OCC4NCCc5cc(O)c(O)cc54)ccc3c2)cc1 (stereo not given)
- IC50 [10]: > 100000 nM
- IC50 [3]: 80000 nM
- EC50 [6]: 78 nM
- Activation [7]: 72%

Compound: CCCCCCNC(=O)Nc1ccc(S(=O)(=O)Nc2ccc(-c3cccc(CC4NCCc5cc(O)c(O)cc54)c3)cc2)cc1 (stereo not given)
- IC50 [8]: 100 µM
- Activation [13]: 33%
- IC50 [10]: 100000 nM
- EC50 [4]: > 1000 nM
- Activation [9]: 12%
- EC50 [5]: > 1000 nM
- EC50 [6]: 600 nM
- Activation [7]: 64%

Compound: CCCCCCNC(=O)Nc1ccc(S(=O)(=O)Nc2ccc(CC3NCCc4cc(O)c(O)cc43)cc2)cc1 (stereo not given)
- IC50 [10]: 200 nM
- IC50 [3]: 1200 nM
- EC50 [6]: 66 nM
- Activation [7]: 82%

Compound: COc1c(I)cc(CC2NCCc3nc(N)sc32)cc1I (stereo not given)
- IC50 [10]: 56 nM
- EC50 [6]: 800 nM
- Activation [7]: 36%

Compound: CCCCCCNC(=O)Nc1ccc(S(=O)(=O)Nc2ccc3cc(CC4NCCc5cc(O)c(O)cc54)ccc3c2)cc1 (stereo not given)
- IC50 [10]: 300 nM
- IC50 [3]: 1000 nM
- EC50 [11]: 7 nM

Compound: CCCCCCNC(=O)Nc1ccc(S(=O)(=O)Nc2cccc(-c3ccc(CC4NCCc5cc(O)c(O)cc54)cc3)c2)cc1 (stereo not given)
- IC50 [8]: 10 µM
- IC50 [2]: 32 µM
- EC50 [4]: 1300 nM
- Activation [9]: 69%
- EC50 [5]: 970 nM
- EC50 [6]: 140 nM
- Activation [7]: 100%

Source: ChEMBL document CHEMBL1132774, “Tetrahydroisoquinoline derivatives containing a benzenesulfonamide moiety as potent, selective human beta3 adrenergic receptor agonists” (Bioorg Med Chem Lett, 2000)
